From paper PMC6407913, “DREADD Agonist 21 Is an Effective Agonist for Muscarinic-Based DREADDs in Vitro and in Vivo” (ACS Pharmacology & Translational Science, 2018)

Assays:
hM4 = molecular target: T1, hM4 (Homo sapiens, UniProt P08173); test: pERK assay, antagonist mode (shift of ACh curve); type: cell-based; conditions: hM4, CHO cells
T1 construct: HA (hemagglutinin); expressed in transfected cells
T1 sequence (P08173 1-479): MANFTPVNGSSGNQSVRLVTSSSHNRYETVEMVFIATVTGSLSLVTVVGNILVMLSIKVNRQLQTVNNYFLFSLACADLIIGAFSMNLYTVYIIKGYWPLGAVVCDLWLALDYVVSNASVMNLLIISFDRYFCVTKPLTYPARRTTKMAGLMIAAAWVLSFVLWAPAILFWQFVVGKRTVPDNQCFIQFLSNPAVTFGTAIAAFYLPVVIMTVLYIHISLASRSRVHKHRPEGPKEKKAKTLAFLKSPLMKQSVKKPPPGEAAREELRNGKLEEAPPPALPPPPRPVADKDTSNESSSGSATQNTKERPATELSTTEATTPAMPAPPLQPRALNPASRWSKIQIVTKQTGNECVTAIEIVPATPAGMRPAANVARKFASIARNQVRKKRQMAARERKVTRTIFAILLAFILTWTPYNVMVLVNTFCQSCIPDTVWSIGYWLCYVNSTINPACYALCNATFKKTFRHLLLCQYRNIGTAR

[1] = molecular target: T2, human H4 histamine receptors (Homo sapiens, UniProt Q9H3N8); test: Gi1 BRET dissociation assay, antagonist mode; type: cell-based; conditions: human H4, HEK293T cells, vs histamine
T2 construct: expressed in transfected cells; host or cells: HEK293T, transient (pcDNA plasmids)
T2 sequence (Q9H3N8 whole entry): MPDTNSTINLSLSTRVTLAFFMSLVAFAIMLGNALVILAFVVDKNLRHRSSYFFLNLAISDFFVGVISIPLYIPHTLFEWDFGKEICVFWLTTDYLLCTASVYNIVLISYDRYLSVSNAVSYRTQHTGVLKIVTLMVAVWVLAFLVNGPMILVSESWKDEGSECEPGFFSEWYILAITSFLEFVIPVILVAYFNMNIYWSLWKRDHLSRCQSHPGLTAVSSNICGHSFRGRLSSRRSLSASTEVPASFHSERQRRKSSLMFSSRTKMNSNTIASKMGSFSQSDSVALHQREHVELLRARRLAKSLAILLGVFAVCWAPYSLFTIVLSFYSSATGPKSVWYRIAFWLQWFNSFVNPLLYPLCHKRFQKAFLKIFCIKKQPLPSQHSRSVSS
Experimental: (§1) Separate pcDNA plasmids containing the sequence for Gβ1, Gγ2-GFP^2, Gi1-Rluc8, and either human dopamine D2 receptor or histamine H4 receptor were cotransfected into HEK293T cells (in 10 cm plates) at 1.5 μg/construct using Transit-2020 (Mirus) at a ratio of 3 μL/μg Transit/DNA. The next day, cells were harvested and plated in DMEM containing 1% dFBS in polylysine-coated 96-well plates (Greiner) at 50 000 cells per well. Sixteen hours later, media was aspirated from each well, and cells were subsequently rinsed with 60 μL of assay buffer (20 mM HEPES, 1× Hanks Buffered Saline Solution, pH 7.4). Before drug treatment, 60 μL of fresh assay buffer was added to each well followed by 10 μL of 50 uM Coelenterazine 400a (Prolume). Luminescence and fluorescence were measured using an LB940 Mithras (Berthold technologies), and BRET was computed as the ratio of GFP^2 fluorescence to luciferase signal.
(§2) In the absence of C21 ([B] = 0), this equation becomes the standard four-parameter logistic equation for fitting agonist concentration–response data.

D2 = D2 (Homo sapiens, UniProt P14416); test: Gi1 BRET dissociation assay, antagonist mode; type: cell-based; conditions: human D2, HEK293T cells, vs quinpirole
Sequence of D2 (P14416 whole entry): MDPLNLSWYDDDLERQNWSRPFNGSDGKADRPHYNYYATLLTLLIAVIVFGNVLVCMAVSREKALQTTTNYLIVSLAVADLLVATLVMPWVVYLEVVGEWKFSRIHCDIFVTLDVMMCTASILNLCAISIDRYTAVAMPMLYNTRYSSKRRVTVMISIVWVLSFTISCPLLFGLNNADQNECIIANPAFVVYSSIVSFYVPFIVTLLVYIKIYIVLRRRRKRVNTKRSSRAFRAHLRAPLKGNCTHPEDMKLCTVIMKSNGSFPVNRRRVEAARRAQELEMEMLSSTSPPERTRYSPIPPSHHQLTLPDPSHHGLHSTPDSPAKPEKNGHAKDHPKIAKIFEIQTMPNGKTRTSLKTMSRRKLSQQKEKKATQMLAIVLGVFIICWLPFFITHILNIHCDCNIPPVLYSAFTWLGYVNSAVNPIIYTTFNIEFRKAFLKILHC
Experimental: as §1, §2

[2] = brain protein binding (brain homogenate); type: in vitro ADME, mouse
dopamine D3 receptors = dopamine D3 receptors (Homo sapiens, UniProt P35462); test: cAMP signaling concentration-response, agonist mode; type: cell-based
Sequence of dopamine D3 receptors (P35462 whole entry): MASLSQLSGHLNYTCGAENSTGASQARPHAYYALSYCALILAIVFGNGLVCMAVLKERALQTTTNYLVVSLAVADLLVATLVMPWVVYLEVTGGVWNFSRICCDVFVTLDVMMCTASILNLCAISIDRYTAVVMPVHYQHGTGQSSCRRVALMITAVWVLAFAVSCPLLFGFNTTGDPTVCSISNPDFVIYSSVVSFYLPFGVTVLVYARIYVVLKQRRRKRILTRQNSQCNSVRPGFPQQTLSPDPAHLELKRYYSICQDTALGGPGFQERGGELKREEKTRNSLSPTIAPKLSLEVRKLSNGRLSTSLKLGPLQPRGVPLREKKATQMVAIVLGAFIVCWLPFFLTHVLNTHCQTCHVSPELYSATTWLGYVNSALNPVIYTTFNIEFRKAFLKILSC
Experimental: (§3) HEK293 T cells were used for transient transfections and Gi mediated cAMP production assays. Assays were performed according to published procedures (PMID25895059, PRESTO-Tango paper). More detailed assay protocols are available at NIMH PDSP Web site (http://pdspdb.unc.edu/pdspWeb/?site=assays).

histamine H4 receptors = molecular target: T3, histamine H4 receptors (Homo sapiens, UniProt Q9H3N8); test: as above; type: cell-based
T3 construct: expressed in transfected cells; host or cells: HEK293T, transient
T3 sequence (Q9H3N8 whole entry): as the sequence (Q9H3N8 whole entry) above
Experimental: as §3

dopamine D2 receptors = dopamine D2 receptors (Homo sapiens, UniProt P14416); test: as above; type: cell-based
Sequence of dopamine D2 receptors (P14416 whole entry): as the sequence (P14416 whole entry) above
Experimental: as §3

plasma protein binding = type: in vitro ADME
hM1Dq [3] = molecular target: T4, hM1Dq (Homo sapiens, UniProt P11229, A196G/Y106C); test: IP-One accumulation assay
T4 sequence (P11229 1-460 Y106C/A196G): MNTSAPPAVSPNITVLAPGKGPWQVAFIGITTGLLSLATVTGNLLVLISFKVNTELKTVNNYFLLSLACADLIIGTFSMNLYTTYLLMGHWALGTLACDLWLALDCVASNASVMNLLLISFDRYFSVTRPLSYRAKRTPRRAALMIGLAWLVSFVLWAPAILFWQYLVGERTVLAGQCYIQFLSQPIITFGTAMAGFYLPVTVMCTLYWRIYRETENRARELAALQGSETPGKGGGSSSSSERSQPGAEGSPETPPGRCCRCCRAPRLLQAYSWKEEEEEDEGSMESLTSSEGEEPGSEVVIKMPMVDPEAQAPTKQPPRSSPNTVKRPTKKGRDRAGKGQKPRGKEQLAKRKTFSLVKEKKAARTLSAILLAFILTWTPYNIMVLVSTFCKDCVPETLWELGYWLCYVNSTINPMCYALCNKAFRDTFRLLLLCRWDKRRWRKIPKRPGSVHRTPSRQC

hM3Dq = molecular target: T5, hM3Dq (Homo sapiens, UniProt P20309, A239G/Y149C); test: Gq-mediated calcium release (FLIPR) assay; type: cell-based; conditions: CHO cells, mean ± SEM, read-out: pEC50 calcium mobilization (converted)
T5 construct: expressed in transfected cells
T5 sequence (P20309 whole entry Y149C/A239G): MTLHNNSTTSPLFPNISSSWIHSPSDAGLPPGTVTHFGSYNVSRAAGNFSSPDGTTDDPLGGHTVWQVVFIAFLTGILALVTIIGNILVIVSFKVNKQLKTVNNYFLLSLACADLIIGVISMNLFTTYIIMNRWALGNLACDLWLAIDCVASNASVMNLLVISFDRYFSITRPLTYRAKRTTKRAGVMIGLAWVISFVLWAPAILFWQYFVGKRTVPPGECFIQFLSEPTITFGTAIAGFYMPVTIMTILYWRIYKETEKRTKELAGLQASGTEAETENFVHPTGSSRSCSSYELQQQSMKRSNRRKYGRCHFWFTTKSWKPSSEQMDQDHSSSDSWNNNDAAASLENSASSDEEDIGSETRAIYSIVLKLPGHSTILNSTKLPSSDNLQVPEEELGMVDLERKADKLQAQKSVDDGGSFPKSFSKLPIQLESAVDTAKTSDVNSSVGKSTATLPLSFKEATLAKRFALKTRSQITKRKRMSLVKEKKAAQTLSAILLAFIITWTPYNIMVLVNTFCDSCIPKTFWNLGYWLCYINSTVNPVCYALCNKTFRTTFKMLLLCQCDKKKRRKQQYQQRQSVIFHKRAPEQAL

hM1Dq [4] = molecular target: T4, hM1Dq; test: whole-cell [3H]NMS competition binding

c1ccc2c(c1)N=C(N1CCNCC1)c1ccccc1N2 [C21, 11-(1-piperazinyl)-5H-dibenzo[b,e][1,4]diazepine]
antagonist activity (shift of acetylcholine curve, pERK) (hM4): weak functional antagonism
antagonist activity, Gi-dissociation assay [1]: no antagonism was observed
antagonist activity, Gi-dissociation assay (D2): antagonism
unbound in brain ([2]; brain): 4.9%
fraction unbound ([2]; mouse, brain homogenate): 0.05
agonist activity, follow-up concentration-response (cAMP) (dopamine D3 receptors): minimal activity
agonist activity, follow-up concentration-response (cAMP) (histamine H4 receptors): minimal activity
agonist activity, follow-up concentration-response (cAMP) (dopamine D2 receptors): minimal activity
fraction unbound (plasma protein binding): 0.049
EC50 (hM1Dq [3]): 1.23 nM
EC50 (hM3Dq): 3.31 nM
Ki (hM1Dq [4]): 63.1 nM
higher binding affinity at hM1Dq than at wildtype hM1 (hM1Dq [4]; hM1Dq vs hM1): > 10 fold
